Data as given in paper PMC3386472 (Journal of Medicinal Chemistry, 2012).
Entries after “also recorded” stand apart in the source; their conditions may differ.

Columns and labels:
reserpine-treated rats = experiment: Reversal of reserpine-induced hypolocomotion in rats; settings: 5 µmol/kg, sc; for P compared to reserpine control (Dunnett's analysis post one-way ANOVA): horizontal locomotor activity; for Reversal of reserpine-induced hypolocomotion (horizontal activity): reserpine 5 mg/kg sc 18 h before, monitored 6 h
human D3 receptor = human D3 receptor (Homo sapiens, UniProt P35462); experiment: Stimulation of [35S]GTPγS binding, cloned human D3 receptor in CHO cells
Sequence of human D3 receptor (P35462 whole entry): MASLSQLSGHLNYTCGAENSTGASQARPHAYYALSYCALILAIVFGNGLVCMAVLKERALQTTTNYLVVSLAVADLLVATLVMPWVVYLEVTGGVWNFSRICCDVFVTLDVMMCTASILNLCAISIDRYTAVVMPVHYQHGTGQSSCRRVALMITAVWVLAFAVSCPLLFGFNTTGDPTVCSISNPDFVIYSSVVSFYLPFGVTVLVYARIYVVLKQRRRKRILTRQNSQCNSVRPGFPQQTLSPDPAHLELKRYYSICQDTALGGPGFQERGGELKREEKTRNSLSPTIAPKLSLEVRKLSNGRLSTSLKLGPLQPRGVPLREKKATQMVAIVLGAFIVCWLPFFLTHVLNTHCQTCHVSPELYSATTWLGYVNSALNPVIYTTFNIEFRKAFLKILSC

human D2 receptor = human D2 receptor (Homo sapiens, UniProt P14416); experiment: Stimulation of [35S]GTPγS binding, cloned human D2 receptor in CHO cells; settings: [35S]GTPγS functional assay, % Emax vs DA
Sequence of human D2 receptor (P14416 whole entry): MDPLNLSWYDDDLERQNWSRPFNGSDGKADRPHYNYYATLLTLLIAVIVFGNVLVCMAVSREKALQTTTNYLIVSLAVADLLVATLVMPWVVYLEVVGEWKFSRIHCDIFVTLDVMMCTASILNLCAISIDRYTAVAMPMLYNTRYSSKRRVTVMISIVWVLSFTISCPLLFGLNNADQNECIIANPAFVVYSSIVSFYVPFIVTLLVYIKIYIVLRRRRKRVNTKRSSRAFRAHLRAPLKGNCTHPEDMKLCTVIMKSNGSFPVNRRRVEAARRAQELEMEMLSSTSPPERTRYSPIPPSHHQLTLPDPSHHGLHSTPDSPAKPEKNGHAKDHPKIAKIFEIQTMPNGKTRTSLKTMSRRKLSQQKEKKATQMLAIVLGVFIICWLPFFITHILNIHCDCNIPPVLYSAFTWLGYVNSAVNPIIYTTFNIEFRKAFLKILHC

[1] = test system: MPTP- and lactacystin-lesioned animal models; settings: cited from earlier work

Which “P compared to reserpine control (Dunnett's analysis post one-way ANOVA)” value (reserpine-treated rats) does the source give for CCCN(CCN1CCN(c2ccc3[nH]ccc3c2)CC1)[C@H]1CCc2nc(N)sc2C1 [Compound (−)-19, (S)-N^6-{2-[4-(1H-Indol-5-yl)piperazin-1-yl]ethyl}-N^6-propyl-4,5,6,7-tetrahydro benzothiazole-2,6-diamine] here?
The value was under 0.01.

What about the “Reversal of reserpine-induced hypolocomotion (horizontal activity)” value (reserpine-treated rats) of the same compound?
Its value is “significantly reversing akinesia; also recorded: significant, long-lasting reversal of hypolocomotion”.

What does the source list for CCCN(CCN1CCN(C(=O)c2c[nH]c3ccccc23)CC1)[C@H]1CCc2nc(N)sc2C1 [Compound (−)-45, (S)-(4-{2-[(2-Amino-4,5,6,7-tetrahydrobenzothiazol-6-yl)propylamino]ethyl}piperazin-1-yl)-(1H-indol-3-yl)methanone]?
Agonist activity at D3 receptor (in words) (human D3 receptor; [35S]GTPγS functional assay, % Emax vs DA): full agonist activity; Agonist activity at D2 receptor (in words) (human D2 receptor): full agonist activity

With CCCN(CCN1CCN(c2ccc(-c3ccccc3)cc2)CC1)[C@H]1CCc2nc(N)sc2C1 [Compound D-264] as the compound, how does the “Neuroprotection in PD animal models” value ([1]; MPTP and lactacystin models) read?
Its value is “neuroprotective”.

And the “Behavioral syndromes in PD mouse models” value ([1]; acute MPTP and progressive lactacystin mouse models)?
Its value is “significantly improved behavioral syndromes”.

For CCCN(CCN1CCN(c2nccc3ccccc23)CC1)[C@H]1CCc2nc(N)sc2C1 [Compound D-301], which Emax (human D3 receptor; CHO, read-out: hCHO-D3 % Emax) is on record?
Its Emax is 102 ± 2%.

What does the source list for CCCN(CCC)CCc1cccc2c1CC(=O)N2.Cl [ropinirole]?
P compared to reserpine control (Dunnett's analysis post one-way ANOVA) (reserpine-treated rats): < 0.05; Reversal of reserpine-induced hypolocomotion (horizontal activity) (reserpine-treated rats): significant locomotor activation
